Experimental data as given in patent US4045567A, “2-Alkyl-5-thiazole-carboxylic acid derivatives in hypolipemiant compositions” (Roussel Uclaf, priority 1969, dated 1977).
Read-outs that look alike come from different tables or passages of the source. Blank lines part the entries; values can stand above or below the compound they belong to.

Legend:
Solubility (qualitative) = format: physicochemical; details: for solubility in other solvents: organic solvents, sodium hydroxide
in vivo = details: mouse, mice, observed one week
Procedure: 1. determination of the acute toxicity:
The acute toxicity has been determined on batches of ten mice weighing from 18 to 22 gm. The products were administered in suspension in gum arabic solution in water, at increasing doses, either by oral route or by intraperitoneal route.
The animals are kept under observation for one week. The average lethal dose (LD50) is determined graphically by the method of Dragstedt and Lang.
The acute toxicity was determined on batches of ten mice weighing from 18 to 22 gm. Ethyl 2-n-propyl-thiazole-4-carboxylate was administered in suspension in gum arabic solution in water, at increasing doses by the intraperitoneal route. The animals were kept under observation for one week. The average lethal dose (LD50) was determined graphically by the method of Dragstedt and Lang.

reddening of the ear = test: Peripheral vasodilatory effect (reddening of the ear) in guinea pigs; format: in vivo, guinea pigs with non-pigmented ears; parameters: key to Intensity (of reddening): intensity, which is recorded subjectively from 0 to +++; intensity, which is recorded subjectively from 0 to +++; intensity, which is recorded subjectively from 0 to +++; intensity, which is recorded subjectively from 0 to +++; details: for Duration (of reddening) / Intensity (of reddening) / Period of Induction: oral
Procedure: Peripheral vasodilatory effect: The peripheral vasodilatory effect has been investigated on the guinea pigs with non-pigmented ears by the appearance of the reddening of the ear. The animals, after being starved, are administered the products by oral route, at different dosages. The time of appearance of a reddening of the ears, the duration of this reddening and its intensity, which is recorded subjectively from 0 to +++ is determined. B. peripheral vasodilatory effect: The peripheral vasodilatory effect was investigated on guinea pigs with non-pigmented ears by the appearance of the reddening of the ear. The animals were starved and the product was administered intraperitoneally at a dose of 100 mg/kg. The time of appearance of a reddening of the ears, the duration of this reddening and its intensity being recorded subjectively from 0 to +++ is determined.

triglycerides = test: Hypolipemiant activity (serum triglycerides) in the rat, technique of Jacobs et al; format: in vivo, male rats of the Wistar strain; details: 4 hours after ingestion; for Percentage of Reduction by Comparison With Controls (triglycerides): oral (oesophagial probe), 20 mg/kg
Procedure: 2. Determination of hypolipemiant activity:
The hypolipemiant activity has been determined on the rat according to the technique of Jacobs et al, Proc. Soc. Exp. Biol. Med., [1965], 119 (4) pp. 1117-1120.
Male rats of the Wistar strain weighing from 160 to 180 gm are not fed for 24 hours. The products employed in a 5% suspension in gum arabic solution in water, are administered through an oesophagial probe at doses of 20, 40 and 80 mg/kg. Four hours after ingestion of the product, some blood is withdrawn on which a determination of the triglycerides is carried out.
The principle of the determination is as follows:
The serum lipids are extracted with petroleum ether in the presence of ethanol. The lipidic solution is treated several times with 87% ethanol. A solution is thus obtained, the upper part of which contains the glycerides and the lower part, the phospholipids.
The weight of the glycerides is determined by determination of glycerol by periodic acid oxidation and determination of the formaldehyde with chromotropic acid.
A. determination of hypolipemiant activity:
The hypolipemiant activity was determined on the rat using the technique of Jacobs et al (Proc. Soc. Exp. Biol. Med., [1965], 119 [4], pp. 1117-1120). Male rats of the Wistar strain weighing from 160 to 180 gm were not fed for 24 hours. The product employed in a 5% suspension in gum arabic solution in water, was administered orally through an oesophagial probe at doses of 20 and 80 mg/kg. Four hours after ingestion of the product, some blood was withdrawn and a determination of the triglycerides therein was made.
The serum lipids are extracted with petroleum ether in the presence of ethanol and the lipidic solution was treated several times with 87% ethanol to obtain a solution, the upper part of which contained the glycerides and the lower part the phospholipids. The weight of the glycerides by determination of glycerol by periodic acid oxidation and determination of the formaldehyde with chromotropic acid is estimated.

[1] = Hypothermic activity in guinea pigs; format: in vivo; details: intraperitoneal, 100 mg/kg, 1, 2 and 3 hours after administration
Procedure: The hypothermic activity was determined on guinea pigs by administering the test compound, ethyl 2-n-propyl-thiazole-4-carboxylate, intraperitoneally at a dose of 100 mg/kg. The body temperature of the guinea pigs was determined 1/2 hour before the administration of the test compound and then 1, 2 and 3 hours after the said administration.

[2] = ip, intraperitoneal, read-out: average lethal dose (LD50), Intraperitoneal Route
[3] = oral, read-out: average lethal dose (LD50), Oral Route

Structure (SMILES): CCc1ncc(C(=O)O)s1 [2-ethyl-5-thiazolecarboxylic acid, 2-Ethyl-5-thiazolecarboxylic acid]
- LD50 at 168 h (in vivo; [2]): 525 mg/kg
- LD50 at 168 h (in vivo; [3]): > 2000 mg/kg
- Duration (of reddening) (reddening of the ear; 50 mg/kg): 50 min
- Intensity (of reddening) (reddening of the ear; 50 mg/kg): +++
- Period of Induction (reddening of the ear; 50 mg/kg): 6 to 8 min
- Duration (of reddening) (reddening of the ear; 100 mg/kg): 60 min
- Intensity (of reddening) (reddening of the ear; 100 mg/kg): +++
- Period of Induction (reddening of the ear; 100 mg/kg): 6 to 7 min
- Percentage of Reduction by Comparison With Controls (triglycerides) (triglycerides): 50%
- solubility in other solvents (Solubility (qualitative)): soluble in ethanol and sodium hydroxide
- solubility in water (Solubility (qualitative)): insoluble in water

Structure (SMILES): Cc1ncc(C(=O)O)s1 [2-methyl-5-thiazolecarboxylic acid]
- Duration (of reddening) (reddening of the ear; 10 mg/kg): 30 min
- Intensity (of reddening) (reddening of the ear; 10 mg/kg): +++
- Period of Induction (reddening of the ear; 10 mg/kg): 5 min
- Duration (of reddening) (reddening of the ear; 20 mg/kg): 32 min
- Intensity (of reddening) (reddening of the ear; 20 mg/kg): +++
- Period of Induction (reddening of the ear; 20 mg/kg): 3 min
- Duration (of reddening) (reddening of the ear; 50 mg/kg): 35 min
- Intensity (of reddening) (reddening of the ear; 50 mg/kg): +++
- Period of Induction (reddening of the ear; 50 mg/kg): 3 min
- Percentage of Reduction by Comparison With Controls (triglycerides) (triglycerides): 40%

Structure (SMILES): CCCCCCc1ncc(C(=O)O)s1 [2-n-hexyl-5-thiazolecarboxylic acid]
- solubility in other solvents (Solubility (qualitative)): soluble in sodium hydroxide and alcohol
- solubility in water (Solubility (qualitative)): insoluble in water

Structure (SMILES): CCCCCCCCCCCc1ncc(C(=O)O)s1 [2-n-undecyl-5-thiazolecarboxylic acid]
- solubility in other solvents (Solubility (qualitative)): soluble in alcohol and acetone
- solubility in water (Solubility (qualitative)): insoluble in water

Structure (SMILES): CCCc1ncc(C(=O)O)s1 [2-propyl-5-thiazolecarboxylic acid]
- LD50 at 168 h (in vivo; [2]): 1680 mg/kg
- LD50 at 168 h (in vivo; [3]): > 2000 mg/kg
- Duration (of reddening) (reddening of the ear; 50 mg/kg): 30 min
- Intensity (of reddening) (reddening of the ear; 50 mg/kg): +
- Period of Induction (reddening of the ear; 50 mg/kg): 13 min
- Duration (of reddening) (reddening of the ear; 100 mg/kg): 32 min
- Intensity (of reddening) (reddening of the ear; 100 mg/kg): ++
- Period of Induction (reddening of the ear; 100 mg/kg): 10 min
- Percentage of Reduction by Comparison With Controls (triglycerides) (triglycerides): > 50%
- solubility in other solvents (Solubility (qualitative)): soluble in sodium hydroxide and alcohol, slightly soluble in ether
- solubility in water (Solubility (qualitative)): insoluble in water

Structure (SMILES): CCCc1ncc(C(=O)O)s1 [diisopropylammonium 2-propyl-5-thiazolecarboxylate]
- solubility in other solvents (Solubility (qualitative)): soluble in water and in alcohol
- solubility in water (Solubility (qualitative)): soluble in water

Structure (SMILES): CCCc1nc(C(=O)OCC)cs1 [ethyl 2-n-propyl-thiazole-4-carboxylate, reference compound]
- LD50 at 168 h (in vivo; [2]): 1000 to 1500 mg/kg
- peripheral vasodilatory effect (reddening of the ear; intraperitoneal, 100 mg/kg, comparison test): no vasodilatory activity
- hypolipemiant activity (action on the triglycerides) (triglycerides; oral, 20 and 80 mg/kg, comparison test): no action on the triglycerides
- hypothermic activity [1]: no hypothermic activity

Continued, in another order:

- solubility in other solvents (Solubility (qualitative)): soluble in ether, benzene and ethanol
- solubility in water (Solubility (qualitative)): insoluble in water
Structure (SMILES): CCCc1ncc(C(=O)OCC2COC(C)(C)O2)s1 (stereo not drawn) [2,3-Isopropylidenedioxy-propyl 2-propyl-5-thiazolecarboxylate]

- solubility in water (Solubility (qualitative)): insoluble in water
Structure (SMILES): CCCCc1ncc(C(=O)O)s1 [2-n-butyl-5-thiazolecarboxylic acid]
- solubility in other solvents (Solubility (qualitative)): soluble in alcohol, chloroform and benzene

- solubility in water (Solubility (qualitative)): insoluble in water
Structure (SMILES): CCCCCc1ncc(C(=O)O)s1 [2-n-pentyl-5-thiazolecarboxylic acid]
- solubility in other solvents (Solubility (qualitative)): soluble in sodium hydroxide and alcohol, slightly soluble in ether

- solubility in other solvents (Solubility (qualitative)): soluble in ether and acetone
- solubility in water (Solubility (qualitative)): insoluble in water
Structure (SMILES): CCCc1ncc(C(=O)OCCc2ccccc2)s1 [Phenylethyl 2-propyl-5-thiazolecarboxylate]

- solubility in other solvents (Solubility (qualitative)): soluble in ether and ethanol
- solubility in water (Solubility (qualitative)): insoluble in water
Structure (SMILES): CCCc1ncc(C(=O)OCc2ccccc2)s1 [benzyl 2-propyl-5-thiazolecarboxylate, Benzyl 2-propyl-5-thiazolecarboxylate]

- solubility in water (Solubility (qualitative)): soluble in water
Structure (SMILES): CCCc1ncc(C(=O)OCCN(CC)CC)s1 [chlorohydrate of N,N-diethylaminoethyl 2-propyl-5-thiazolecarboxylate]
- solubility in other solvents (Solubility (qualitative)): soluble in water, ethanol, propylene glycol, acetone, and chloroform, slightly soluble in ethyl acetate and benzene, and insoluble in ether
